The record followed here is patent publication USRE35044E, “Cyanine compounds” (Asahi Chemical Co., Ltd., priority 1987, dated 1995).

A short description of data set [1]: Absorption maximum and molar absorptivity in solution. The format is physicochemical. The arrangement: ε: unit not given here.
The nature of data set [2]: Test for solubility in solvent. The format is physicochemical. Here is the method:
Each of cyanine dyes as shown below in Table 2 was dissolved in methanol and the solubility was determined at room temperature with the results indicated below in Table 2.

With `CCOc1cc(C)c2c(c1)C(C)(C)C(=CC=CC=CC1=[N+](CC)c3c(C)cc(OCC)cc3C1(C)C)N2CC` [Preparation Example 7], the ε in data set [1] (dichloroethane) is on record as 1.75×10^5. As to `CCOc1cc(OCC)c2c(c1)C(C)(C)C(=CC=CC=CC1=[N+](CC)c3c(OCC)cc(OCC)cc3C1(C)C)N2CC` [Preparation Example 2], the ε in data set [1] (dichloromethane) is 1.72×10^5. On to `CCN1C(=CC=CC=CC2=[N+](CC)c3c(OC)cc(OC)cc3C2(C)C)C(C)(C)c2cc(OC)cc(OC)c21` [Preparation Example 1], for which, in data set [1] (alcohol), the ε is reported as 1.84×10^5 and the λmax worked out at 693 nm. `CCOc1ccc2c(c1)C(C)(C)C(=CC=CC=CC1=[N+](C)c3ccc(OCC)cc3C1(C)C)N2C` [Compound B]: the “solubility in solvents (in words)” value in data set [2] is given as “not satisfactory in solubility”.

As to `CCOc1ccc2c(c1)C(C)(C)C(=CC=CC=CC=CC1=[N+](C)c3ccc(OCC)cc3C1(C)C)N2C` [Compound A], the “solubility in solvents (in words)” value in data set [2] is recorded as “does not exhibit good solubility”.
